Assay [1] addresses T1, DGAT1 (human small intestinal microsomal preparation) (Homo sapiens, UniProt O75907).
T1 construct: using a human small intestinal microsomal preparation (BD Biosciences) as the enzyme source; tissue BD Biosciences; host or cells: human small intestine microsomes
T1 sequence (O75907 1-488): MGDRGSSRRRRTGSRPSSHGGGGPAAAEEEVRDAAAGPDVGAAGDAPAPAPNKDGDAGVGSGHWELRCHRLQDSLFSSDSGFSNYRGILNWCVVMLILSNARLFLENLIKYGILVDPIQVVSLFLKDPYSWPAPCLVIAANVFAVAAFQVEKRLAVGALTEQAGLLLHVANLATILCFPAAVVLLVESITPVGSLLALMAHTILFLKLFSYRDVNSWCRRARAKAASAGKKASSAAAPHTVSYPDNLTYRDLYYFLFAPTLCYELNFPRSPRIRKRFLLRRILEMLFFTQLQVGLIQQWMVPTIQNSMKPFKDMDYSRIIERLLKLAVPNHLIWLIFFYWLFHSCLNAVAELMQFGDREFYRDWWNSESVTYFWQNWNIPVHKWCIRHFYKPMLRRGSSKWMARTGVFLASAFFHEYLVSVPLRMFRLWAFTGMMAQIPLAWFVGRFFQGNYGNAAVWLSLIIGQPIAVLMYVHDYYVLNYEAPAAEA
Description: Cell-free DGAT1 enzyme assay (LC-MS readout). The assay is classed as biochemical. As for the experimental part: A cell-free DGAT1 assay was established using a human small intestinal microsomal preparation (BD Biosciences) as the enzyme source, and dioleoyl glycerol and palmitoleoyl Coenzyme A (CoA) as substrates (Sigma). Dioleoyl glycerol was dissolved in DMSO and diluted to 600 μM with 175 mM Tris–HCl and 100 mM MgCl2 (Tris/MgCl2) buffer. Palmitoleoyl CoA was dissolved in1.5 % acetone water solution (Fisher Scientific) to 150 μM. Microsomes were diluted to 25 μg/mL with 3.5 mg/mL BSA in Tris MgCl2 buffer. To a 1.5 mL tube, 67 μL of each palmitoleoyl CoA s and dioleoyl glycerol solutions (1:1 ratio) were added and the reaction was initiated by the addition of 67 μL of microsomes. The reaction was incubated in a 37 °C water bath for 60 min. The reaction was stopped by the addition of 1 mL of extraction solvent (isopropanol:dichloromethane (1:1 v/v) with 2.4 % formic acid) containing 1 μg/mL internal standard (glyceryl triolein, Sigma) to each tube and mixed by vortexing. The tubes were centrifuged at 10,000Xg for 3 min. 500 μL of the bottom phase was filtered through a Millex-HV syringe driven filter unit with tube outlet (PVDF @ 0.45 μm, Millipore) and transferred to LC-MS vials (12x32 mm glass screw neck, preslit cap & PTFE/silicone septa, Waters). Phytochemicals (Sigma), botanical extracts and positive control were diluted in DMSO and added to the reaction with the substrates at the desired concentration. The DGAT1 inhibitor A922500 (Tocris) was used as positive control at a concentration of 40 nM.
Refer to Table 3 for the mobile phase program. Solvent A: 0.1 % ammonium acetate in water; Solvent B: 0.1 % acetic acid in acetonitrile; Solvent C: 0.1 % acetic acid in isopropanol; all solvents were from Fisher Scientific. Injection volume: 10 μL. Column: Acquity BEH C18 1.7 μm, 2.1 x 50 mm. Effluent from the column was directed to the electrospray source of the mass spectrometer. Electrospray conditions: positive ion mode; cone voltage: […]; desolvation temperature: 450 °C; source temperature: 140 °C; nebulizer gas flow: 800 L/h; cone gas flow: 10 L/h. The mass spectrometer was operated at 20,000 resolving power and scans from m/z 100–1200 were acquired with a cycle time of 0.25 s. Selected ion chromatograms were plotted for the following: m/z 875 representing the ammoniated molecular ion for triacylglycerol reaction product containing 2 oleic acid and 1 palmitoleic acid moieties (C18:1/C18:1/C16:1); m/z 903 for the ammoniated molecular ion of glyceryl triolein (C18:1/C18:1/C18:1) internal standard. Quantification was determined based on area counts of the product relative to the internal standard.
Dose response curves for the cell-free DGAT1 assay were fitted with a log (inhibitor) vs. response, variable slope (four parameters) equation. Cellular DGAT1 assay data is shown as mean ± standard error of mean (SEM) and was analyzed by two-way ANOVA with Bonferroni's multiple comparison test. The primary outcome variable, serum TG level, is presented as mean ± SEM of baseline (fasting) subtracted change in serum TG after the HFM challenge. Area under the curve (AUC) was determined using the trapezoidal method. Comparisons between groups were made using unpaired t-test with Welch’s correction. A significant effect of investigational product was defined as P < 0.05. All statistical analyses were done using Prism-Graph Pad Software (San Diego, CA).

Assay [2] has as its system DGAT1 activity / TG synthesis in HEK293H cells. Description: Cellular DGAT1 assay: [14C]-glycerol incorporation into TG. The assay is classed as cell-based, human. The source says: Three different cell lines, human colorectal (HT-29), human embryonic kidney (HEK293H) and human hepatic (HEPG2) were screened for the presence of both DGAT1 and DGAT2 protein. The HEK293H cell line contained DGAT1 and little to no DGAT2 protein (Additional file 1: Figure S1), therefore, a cellular DGAT1 assay was established in HEK293H cells to measure the synthesis of TG. HEK293 cell line has previously been reported to contain only DGAT1 and not DGAT2, and has been validated as an in vitro model to determine TG synthesis via DGAT1 [34].
The DGAT1 activity was determined by measuring the incorporation of [^14C]-glycerol (1 μCi/mL, Perkin-Elmer) into [^14C]-TG during a 5 h incubation with 0.3 mM oleic acid/BSA in HEK293H cells. […] Silica gel spots corresponding to lipid species were scraped into scintillation vials and the incorporated radioactivity was quantified using a MicroBeta TriLux (Perkin-Elmer). […]
Dose response curves for the cell-free DGAT1 assay were fitted with a log (inhibitor) vs. response, variable slope (four parameters) equation. Cellular DGAT1 assay data is shown as mean ± standard error of mean (SEM) and was analyzed by two-way ANOVA with Bonferroni's multiple comparison test. […] Area under the curve (AUC) was determined using the trapezoidal method. […]

[3] abbreviates: single phytochemicals, mean of duplicates.

Turning to Punicalagins, in assay [1] (setting [3]), the IC50 came to 259 nM. With `O=C(O)c1cc(O)c(O)c(O)c1` [Gallic Acid], the midpoint of inhibition in assay [1] (setting [3]), the IC50, lay at 2670 nM. This IC50 lies about 10-fold higher than the previous one. Still for that read-out and setting: for `Oc1cc(O)c2cc(O)c(-c3ccc(O)c(O)c3)[o+]c2c1` [Cyanidin Chloride] the value was 3060 nM. For the molecule `O=C(Nc1ccccc1)Nc1ccc(-c2ccc(C(=O)[C@@H]3CCC[C@H]3C(=O)O)cc2)cc1` [A-922500], the IC50 in assay [1] (synthetic inhibitor) stood at 40 nM; in assay [1] (synthetic inhibitor, listed as A922500) it was 39.9 nM. Moreover, in assay [2], the “oleic acid induced DGAT1 enzyme activity as measured by 14C label TG levels” value is recorded as “inhibited”. For `O=C(O[C@@H]1Cc2c(O)cc(O)cc2O[C@@H]1c1cc(O)c(O)c(O)c1)c1cc(O)c(O)c(O)c1` [EGCG, Epigallocatechin Gallate], the IC50 in assay [1] (setting [3]) was 667 nM. On the same count and under the same terms, then `O=c1oc2c(O)c(O)cc3c(=O)oc4c(O)c(O)cc1c4c23` [Ellagic Acid], with 3450 nM.

As a reminder, the IC50 is the concentration at which inhibition is half-maximal. A high value points to lower potency.

Source of the values: article PMC4526202, “Identification of a botanical inhibitor of intestinal diacylglyceride acyltransferase 1 activity via in vitro screening and a parallel, randomized, blinded, placebo-controlled clinical trial” (Nutrition & Metabolism, 2015).
